From PubChem BioAssay AID248 (DTP/NCI, 2004)
Several values for one entry are separate records, joined by “and”; a condition that tells them apart may be missing. Equal entries are not always repeated. Inconclusive results and toxic doses are left out. Cut-off read from the data, not from the text of the source: active = T/C of 150% or more; inactive = T/C below 125%.

Tested on: L1210 leukemia ip in BDF1 mice, survival T/C
Experiment: NCI In Vivo Anticancer Drug Screen. Data for tumor model L1210 Leukemia (intraperitoneal) in B6D2F1 (BDF1) mice
Conditions: endpoint: mean survival time, higher = longer survival
In short: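 Value reflects the ratio of survival in compound-treated mice to survival in vehicle-treated controls, with both groups carrying the same transplanted tumor.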

[1] = dose: 100.0 mg/kg/injection, schedule: Q01DX001 (ip), vehicle: saline with Tween-80
[2] = dose: 100.0 mg/kg/injection, schedule: Q01DX009 (ip), vehicle: saline with Tween-80
[3] = dose: 100.0 mg/kg/injection, schedule: Q04DX002 (ip), vehicle: saline with Tween-80
[4] = dose: 200.0 mg/kg/injection, schedule: Q01DX001 (ip), vehicle: saline with Tween-80
[5] = dose: 200.0 mg/kg/injection, schedule: Q01DX009 (ip), vehicle: saline with Tween-80
[6] = dose: 200.0 mg/kg/injection, schedule: Q04DX002 (ip), vehicle: saline with Tween-80
[7] = dose: 400.0 mg/kg/injection, schedule: Q01DX009 (ip), vehicle: saline with Tween-80
[8] = dose: 400.0 mg/kg/injection, schedule: Q04DX002 (ip), vehicle: saline with Tween-80
[9] = dose: 100.0 mg/kg/injection, schedule: Q04DX003 (ip), vehicle: saline with Tween-80
[10] = dose: 200.0 mg/kg/injection, schedule: Q04DX003 (ip), vehicle: saline with Tween-80
[11] = dose: 400.0 mg/kg/injection, schedule: Q04DX003 (ip), vehicle: saline with Tween-80
[12] = dose: 100.0 mg/kg/injection, schedule: Q01DX001 (ip), vehicle: saline
[13] = dose: 200.0 mg/kg/injection, schedule: Q01DX001 (ip), vehicle: saline
[14] = dose: 400.0 mg/kg/injection, schedule: Q01DX001 (ip), vehicle: saline
[15] = dose: 25.0 mg/kg/injection, schedule: Q04DX003 (ip), vehicle: saline with Tween-80
[16] = dose: 50.0 mg/kg/injection, schedule: Q01DX009 (ip), vehicle: saline with Tween-80
[17] = dose: 50.0 mg/kg/injection, schedule: Q04DX003 (ip), vehicle: saline with Tween-80
[18] = dose: 100.0 mg/kg/injection, schedule: Q01DX009 (ip), vehicle: Klucel (hydroxypropylcellulose) (HPC)
[19] = dose: 100.0 mg/kg/injection, schedule: Q04DX003 (ip), vehicle: Klucel (hydroxypropylcellulose) (HPC)
[20] = dose: 200.0 mg/kg/injection, schedule: Q01DX009 (ip), vehicle: Klucel (hydroxypropylcellulose) (HPC)
[21] = dose: 200.0 mg/kg/injection, schedule: Q04DX003 (ip), vehicle: Klucel (hydroxypropylcellulose) (HPC)
[22] = dose: 50.0 mg/kg/injection, schedule: Q01DX001 (ip), vehicle: saline
[23] = dose: 25.0 mg/kg/injection, schedule: Q01DX009 (ip), vehicle: saline with Tween-80

Measured: T/C

O=C(CCc1ccccc1)Nc1ccc(F)cc1
inactive: [1] 95 % of control | [2] 97 % of control and 106 % of control | [3] 94 % of control and 98 % of control | [4] 95 % of control | [5] 93 % of control and 95 % of control | [6] 94 % of control and 102 % of control | dose: 400.0 mg/kg/injection, schedule: Q01DX001 (ip), vehicle: saline with Tween-80 94 % of control | [7] 98 % of control and 101 % of control | [8] 94 % of control and 97 % of control

NC(Cc1c[nH]c2cc(F)ccc12)C(=O)O (stereo unspecified)
inactive: dose: 100.0 mg/kg/injection, schedule: Q01DX009 (ip), vehicle: other 97 % of control | dose: 200.0 mg/kg/injection, schedule: Q01DX009 (ip), vehicle: other 96 % of control | dose: 400.0 mg/kg/injection, schedule: Q01DX009 (ip), vehicle: other 97 % of control

CC(=O)NC(C)C
inactive: [9] 93 % of control | [10] 100 % of control | [11] 96 % of control

CC(C)C(CN)(CCCCN1CCCC1)c1cccc2ccccc12 (stereo unspecified)
inactive: dose: 12.5 mg/kg/injection, schedule: Q04DX003 (ip), vehicle: saline 96 % of control | dose: 25.0 mg/kg/injection, schedule: Q04DX003 (ip), vehicle: saline 93 % of control | dose: 50.0 mg/kg/injection, schedule: Q04DX003 (ip), vehicle: saline 96 % of control

CN(C)c1ccc(C=Nc2cc([N+](=O)[O-])ccc2O)cc1
inactive: [12] 96 % of control | [13] 92 % of control | [14] 91 % of control

CC(C)c1ccc(/C=C\C(=O)c2ccc(-c3ccccc3)cc2)cc1
inactive: [2] 103 % of control | [3] 86 % of control | [5] 106 % of control | [6] 101 % of control | [8] 101 % of control

[Cl][Pt+2][Cl].c1ccc(C2CC[N-]CC2)cc1.c1ccc(C2CC[N-]CC2)cc1
inactive: dose: 6.25 mg/kg/injection, schedule: Q04DX003 (ip), vehicle: water 100 % of control | dose: 12.5 mg/kg/injection, schedule: Q04DX003 (ip), vehicle: water 100 % of control | dose: 25.0 mg/kg/injection, schedule: Q04DX003 (ip), vehicle: water 105 % of control | dose: 50.0 mg/kg/injection, schedule: Q04DX003 (ip), vehicle: water 102 % of control

O=S(=O)(c1ccc(O)c(F)c1)c1ccc(O)c(F)c1
inactive: dose: 100.0 mg/kg/injection, schedule: Q04DX002 (ip), vehicle: gum acacia 90 % of control | dose: 200.0 mg/kg/injection, schedule: Q04DX002 (ip), vehicle: gum acacia 101 % of control

CCOc1ccc(Nc2cc([N+](=O)[O-])ccc2C(=O)O)cc1
inactive: [15] 101 % of control | [16] 103 % of control | [17] 95 % of control | [2] 109 % of control | [9] 107 % of control | [5] 98 % of control | [10] 93 % of control

CCOc1cc(N)ccc1C
inactive: [18] 97 % of control | [19] 108 % of control | [20] 99 % of control | [21] 97 % of control | dose: 400.0 mg/kg/injection, schedule: Q04DX003 (ip), vehicle: Klucel (hydroxypropylcellulose) (HPC) 101 % of control

CCCCCCCCCCCCCCCCCC(=O)OCC1(COC(=O)CCCCCCCCCCCCCCCCC)COC(CCCCCCCCCCCCCCCCC)=N1
inactive: dose: 100.0 mg/kg/injection, schedule: Q01DX001 (ip), vehicle: Klucel (hydroxypropylcellulose) (HPC) 92 % of control | dose: 200.0 mg/kg/injection, schedule: Q01DX001 (ip), vehicle: Klucel (hydroxypropylcellulose) (HPC) 95 % of control | dose: 400.0 mg/kg/injection, schedule: Q01DX001 (ip), vehicle: Klucel (hydroxypropylcellulose) (HPC) 109 % of control

CC1=CC=C(C(=O)O)C1
inactive: [18] 90 % of control | [20] 100 % of control | dose: 400.0 mg/kg/injection, schedule: Q01DX009 (ip), vehicle: Klucel (hydroxypropylcellulose) (HPC) 92 % of control

O=S(=O)(ON=C1C=CC(=NOS(=O)(=O)c2ccccc2)C=C1)c1ccccc1
inactive: [22] 96 % of control | [12] 93 % of control | [13] 93 % of control | [14] 93 % of control

N/C(Cc1ccc(N)cc1)=N\O
inactive: [23] 97 % of control | [16] 101 % of control | [2] 95 % of control

CCCCC(CC)COC(C)=O (stereo unspecified)
inactive: [2] 94 % of control | [9] 98 % of control | [5] 102 % of control | [10] 93 % of control | [7] 91 % of control | [11] 92 % of control

Cc1ccc(S(=O)(=O)OC/C(=C(/c2ccccc2)c2ccc(Cl)cc2)c2ccccc2)cc1
inactive: dose: 6.25 mg/kg/injection, schedule: Q04DX003 (ip), vehicle: saline with Tween-80 96 % of control | dose: 12.5 mg/kg/injection, schedule: Q04DX003 (ip), vehicle: saline with Tween-80 98 % of control | [15] 95 % of control

O=C(CCCC(=O)NNC(=O)Nc1ccc(Br)cc1)NNC(=O)Nc1ccc(Br)cc1
inactive: [22] 93 % of control | [12] 100 % of control | [13] 96 % of control | [14] 96 % of control

CC1CCc2ccccc2N1C1=NCCO1 (stereo unspecified)
inactive: dose: 19.0 mg/kg/injection, schedule: Q04DX003 (ip), vehicle: saline 97 % of control | dose: 38.0 mg/kg/injection, schedule: Q04DX003 (ip), vehicle: saline 94 % of control | dose: 75.0 mg/kg/injection, schedule: Q01DX001 (ip), vehicle: saline 102 % of control

CCCCCCCCCC(C)CCCC (stereo unspecified)
inactive: [1] 86 % of control | [4] 96 % of control

N#CC1(N(O)C(=O)Nc2ccccc2Cl)CCCCC1
inactive: dose: 100.0 mg/kg/injection, schedule: Q01DX001 (ip), vehicle: carboxymethylcellulose (CMC) 100 % of control | dose: 200.0 mg/kg/injection, schedule: Q01DX001 (ip), vehicle: carboxymethylcellulose (CMC) 96 % of control | dose: 400.0 mg/kg/injection, schedule: Q01DX001 (ip), vehicle: carboxymethylcellulose (CMC) 91 % of control

NC(=O)C1(c2ccccc2)CCN(Cc2ccccc2)CC1
inactive: [23] 100 % of control | [16] 98 % of control | [17] 95 % of control | [2] 94 % of control | [9] 92 % of control

CCCCCC(C[N+](C)(C)C)C(=O)/C=C/c1ccc(Cl)cc1 (stereo unspecified)
inactive: [19] 96 % of control | [21] 106 % of control

C=CCCC(C)=O
inactive: [3] 102 % of control | [6] 102 % of control | [8] 102 % of control

CCOc1ccccc1C1CCCCC1OS(=O)(=O)c1ccc(C)cc1 (stereo unspecified)
inactive: dose: 50.0 mg/kg/injection, schedule: Q01DX009 (ip), vehicle: acetone 92 % of control | dose: 100.0 mg/kg/injection, schedule: Q01DX009 (ip), vehicle: acetone 94 % of control and 92 % of control | dose: 200.0 mg/kg/injection, schedule: Q01DX009 (ip), vehicle: acetone 105 % of control and 90 % of control
